Test results taken from US4342766A, “Novel dihydro-as-triazino[5,6-c]quinoline derivatives and a process for the preparation thereof” (priority 1980, dated 1982).

Key:
[1] = in vivo; conditions: mouse, mice, female and male, 18 to 24 g, oral
Protocol: The acute toxicity of the compounds of the formula I was determined on both female and male mice weighing 18 to 24 g. The compounds were administered orally.

[2] = Analgesic effect, acetic acid writhing test on mice; conditions: for ED50: Mus musculus, po, read-out: Analgesic effect ED50 p.o.; for Therapeutic index LD50/ED50 (analgesic effect): mice, p.o., acetic acid writhing
Protocol: The analgesic effect was studied by means of the acetic acid writhing test on mice. After the intraperitoneal administration of 0.4 ml of 0.5 percent acetic acid, the writhing responses were counted between the fifth and tenth minutes. The writhing number was calculated as the percentage of the control value. The compounds tested were orally administered to the animals 1 hour prior to the treatment with acetic acid. […] Paracetamole and phenylbutazone were used as reference substance.

[3] = Narcosis potentiating effect (hexobarbital sleeping time); type: in vivo, mice; conditions: for ED50: Mus musculus, read-out: Narcosis potentiating effect ED50 p.o.; for Therapeutic index LD50/ED50 (narcosis potentiating effect): p.o., hexobarbital
Protocol: The narcosis potentiating effect of the novel compounds of the formula I was tested on groups consisting of 6 mice each. The animals belonging to the control group received an oral dosage of 20 ml/kg of 0.9 percent aqueous sodium chloride solution, whereas the other animals were treated orally with the compound to be tested.

[4] = Antiphlogistic effect, carrageenin paw test on rats (method of Winter); conditions: for ED50: Rattus norvegicus, po, 3 h, read-out: Antiphlogistic effect ED50 p.o.; for Therapeutic index LD50/ED50 (antiphlogistic effect): p.o., carrageenin paw test on rats, LD50 from mice
Protocol: The antiphlogistic effect of the novel compounds of the invention was investigated on rats by the method of Winter [J. Pharm. […] 0.1 ml of a 1 percent carrageenin suspension was injected, subcutaneously, into the plantar region of one of the hind paws. The compounds to be tested were administered orally into the animals 1 hour before the injection of the carrageenine suspension. The volume of the treated paw was measured by mercury-plethysmometer before and 3 hours after injection.

[5] = Anticonvulsive effect, inhibition of the spasm provoked by electroshock; type: in vivo, white mice; conditions: for ED50: Mus musculus, white mice, oral 1 hour prior to electroshock (45 mA, 50 Hz, 0.4 sec), read-out: Inhibition of the spasm provoked by electroshock ED50 p.o.; for Therapeutic index LD50/ED50 (electroshock): mice, p.o.
Excerpt: The anticonvulsive effect of the novel compounds was studied on white mice weighing 20 to 25 g through the inhibition of the spasm developed by electroshock. The electroshock was provoked by means of corneal electrodes with a current intensity of 45 mA. The frequency of the current used was equivalent to 50 Hz, and the duration of each electroshock was 0.4 sec. The complete inhibition of the tonic extension of the hind limbs was taken as criterium of the anticonvulsive effect. The compounds to be tested were administered orally 1 hour prior to the electroshock.

[6] = Anticonvulsive effect, inhibition of spasms provoked by pentamethylenetetrazole; type: in vivo, white mice; conditions: for ED50: Mus musculus, white mice, oral 1 hour before pentamethylenetetrazole 125 mg/kg i.p., read-out: Inhibition of spasms provoked by pentamethylenetetrazole ED50 p.o.; for Therapeutic index LD50/ED50 (pentamethylenetetrazole): mice, p.o.
Protocol: The anticonvulsive effect of the compounds was also studied through the inhibition of the spasm provoked by pentamethylenetetrazole [6,7,8,9-tetrahydro-5H-tetrazoloazepine]. 125 mg/kg doses of pentamethylenetetrazole were administered intraperitoneally into white mice divided into groups consisting of 6 animals and the tonic extension spasms of the hind limbs were registered. The compounds to be tested were administered orally 1 hour before the injection of pentamethylenetetrazole.

[7] = Tetrabenazine antagonism; type: in vivo; conditions: for ED50: Mus musculus, oral 30 minutes before tetrabenazine 50 mg/kg i.p., counts at 30, 60, 90 and 120 minutes, read-out: Tetrabenazine antagonism ED50 p.o.; for Therapeutic index LD50/ED50 (tetrabenazine antagonism): p.o.
Protocol: The tetrabenazine antagonizing effect of the novel compounds was tested on groups consisting of 10 mice each. The animals belonging to the control group received an oral dosage of 20 ml/kg of 0.9 percent aqueous sodium chloride solution, whereas the other animals were treated orally with the compound to be tested. 30 minutes after the introduction of the active agent or the vehicle, 50 mg/kg of tetrabenazine [3-isobutyl-9,10-dimethoxy-1,2,3,4,6,7-hexahydrobenzo[a]quinolizine-2-one]were administered intraperitoneally. The animals with closed palpebral fissures were counted 30, 60, 90 and 120 minutes after the administration of tetrabenazine. The data obtained in the individual measuring times were added, and the percentage inhibition related to the controls was calculated. Amitriptylin was employed as reference compound.

[8] = mice, oral 1 hour before hexobarbital 40 mg/kg i.v., 150 percent prolongation of sleeping time = positive response

Structure (SMILES) | LD50 [1] | ED50 [2] | Therapeutic index LD50/ED50 (analgesic effect) [2] | ED50 [3, 8] | Therapeutic index LD50/ED50 (narcosis potentiating effect) ([3]; mice) | ED50 [4] | ED50 [5] | Therapeutic index LD50/ED50 (electroshock) [5] | ED50 [6] | Therapeutic index LD50/ED50 (pentamethylenetetrazole) [6] | ED50 [7] | Therapeutic index LD50/ED50 (tetrabenazine antagonism) [7] | also measured
CCCCCC1=Nc2cnc3ccccc3c2N(C(C)=O)N1 [Example 1, 1-acetyl-3-amyl-1,2-dihydro-as-triazino[5,6-c]quinoline] | 2000 mg/kg | 125 mg/kg | 16 | 200 mg/kg | 10 | 100 mg/kg |  |  |  |  |  |  | Therapeutic index LD50/ED50 (antiphlogistic effect) [4]: 20
CC(=O)N1C(c2ccccc2)=NNc2c1cnc1ccccc21 [Example 3, 4-Acetyl-3-phenyl-1,4-dihydro-as-triazino[5,6-c]quinoline] | 2000 mg/kg |  |  | 150 mg/kg | 13.3 |  |  |  |  |  |  |  | 
CC(=O)N1NC(CC(C)C)=Nc2cnc3ccccc3c21 [Example 8, 1-Acetyl-3-isobutyl-1,2-dihydro-as-triazino[5,6-c]quinoline] | 2000 mg/kg |  |  | 70 mg/kg | 28.5 |  | 200 mg/kg | 10 | 72 mg/kg | 27,8 | 20 mg/kg | 100 | 
CC(=O)Nc1ccc(O)cc1 [paracetamole, p-hydroxyacetanilide, reference compound] | 540 mg/kg | 180 mg/kg | 3 |  |  |  |  |  |  |  |  |  | 
CCCCC1=Nc2cnc3ccccc3c2N(C(C)=O)N1 [Example 6, 1-Acetyl-3-butyl-1,2-dihydro-as-triazino[5,6-c]quinoline] | 2000 mg/kg | 320 mg/kg | 6 | 125 mg/kg | 16 | 36 mg/kg | 160 mg/kg | 12.5 | 90 mg/kg | 22,2 |  |  | Therapeutic index LD50/ED50 (antiphlogistic effect) [4]: 55
CN1C(=O)OC(C)(C)C1=O [trimethadione, 3,5,5-trimethyloxazolidine-2,4-dione, reference compound] | 2050 mg/kg |  |  |  |  |  | 400 mg/kg | 5.3 | 490 mg/kg | 4,3 |  |  | 
CC(=O)N1NC(CCC(C)C)=Nc2cnc3ccccc3c21 [Example 10, 1-Acetyl-3-(3'-methyl-1'-butyl)-1,2-dihydro-as-triazino[5,6-c]quinoline] | 2000 mg/kg | 100 mg/kg | 20 | 100 mg/kg | 20 | 200 mg/kg |  |  |  |  | 14.5 mg/kg | 138 | Therapeutic index LD50/ED50 (antiphlogistic effect) [4]: 10
CN(C)CCC=C1c2ccccc2CCc2ccccc21 [amitriptylin, 5-(3-dimethylaminopropylidene)-10,11-dihydro-5H-dibenzo[a,d]cycloheptene, reference compound] |  |  |  |  |  |  |  |  |  |  | 12 mg/kg | 19 | 
CCCCC1C(=O)N(c2ccccc2)N(c2ccccc2)C1=O [phenylbutazone, 4-butyl-1,2-diphenylpyrazolidine-3,5-dione, reference compound] |  | 60 mg/kg |  |  |  | 100 mg/kg |  |  |  |  |  |  | 
CC(=O)N1NC(C(C)(C)C)=Nc2cnc3ccccc3c21 [Example 9, 1-Acetyl-3-tert.-butyl-1,2-dihydro-as-triazino[5,6-c]quinoline] | 2000 mg/kg |  |  |  |  |  |  |  | 165 mg/kg | 12 |  |  | 
CCCC(C)(COC(N)=O)COC(N)=O [meprobamate, 2-methyl-2-propylpropane-1,3-diol dicarbamate, reference compound] |  |  |  |  | 4.2 |  |  |  |  |  |  |  | ED50 ([3]; po): 260 mg/kg
CCC(CC)C1=Nc2cnc3ccccc3c2N(C(C)=O)N1 [Example 11, 1-Acetyl-3-[1'-ethyl-1'-propyl]-1,2-dihydro-as-triazino[5,6-c]quinoline] |  |  |  |  |  |  |  |  |  |  | 54 mg/kg | 37 | 
CCCCCCCCC1=Nc2cnc3ccccc3c2N(C(C)=O)N1 [Example 7, 1-Acetyl-3-octyl-1,2-dihydro-as-triazino[5,6-c]quinoline] | 2000 mg/kg |  |  |  |  |  | 450 mg/kg | 4.4 | 350 mg/kg | 5,7 |  |  | 
